# Results taken from article PMC11379592 (BBA Advances, 2024).
# Legend:
# mouse sEH = molecular target: T1, mouse sEH (Mus musculus, UniProt P34914); experiment: mouse sEH inhibition assay; format: biochemical
# T1 sequence (P34914 1-554): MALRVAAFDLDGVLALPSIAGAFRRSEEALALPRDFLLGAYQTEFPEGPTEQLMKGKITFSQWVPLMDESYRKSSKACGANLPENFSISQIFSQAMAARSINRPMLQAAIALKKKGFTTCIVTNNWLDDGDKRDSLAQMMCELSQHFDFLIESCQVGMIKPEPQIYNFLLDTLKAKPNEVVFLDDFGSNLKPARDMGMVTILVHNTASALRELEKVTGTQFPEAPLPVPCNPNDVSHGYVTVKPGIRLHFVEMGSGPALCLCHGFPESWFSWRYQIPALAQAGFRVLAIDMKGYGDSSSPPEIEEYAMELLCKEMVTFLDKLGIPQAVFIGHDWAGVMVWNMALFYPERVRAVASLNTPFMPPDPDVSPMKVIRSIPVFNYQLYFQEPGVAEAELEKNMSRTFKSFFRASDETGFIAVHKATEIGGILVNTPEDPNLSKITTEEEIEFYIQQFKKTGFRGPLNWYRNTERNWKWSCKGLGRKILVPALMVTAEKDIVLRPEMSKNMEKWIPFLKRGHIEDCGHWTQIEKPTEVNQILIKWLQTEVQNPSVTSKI
# [1] = plasma stability assay, rat plasma; format: in vitro ADME; settings: 37 °C, pH 7.4, 0-120 min
# [2] = plasma stability assay, human plasma; format: in vitro ADME; settings: pH 7.4
# [3] = tested on: formalin-induced orofacial pain in female rats; settings: doses ranging from 0.5 to 5 mg/kg; cited from earlier work
activity in mouse sEH inhibition assay (in words) (mouse sEH),Half-life ([1]; 5 μM),"half-life at 5 μM ([1]; rat, plasma, pH 7.4, Half-life)",half-life at 5 μM [2],SMILES,effect on formalin-induced orofacial pain [3]
weak inhibitor,31.1 min,~30 min,410 min,"Cc1ccc(-c2csc(-c3ccc(NC(=O)C4CCN(S(=O)(=O)c5ccccc5Cl)CC4)cc3)n2)cc1 [SW-17, 1-((2-chlorophenyl)sulfonyl)-N-(4-(4-(p-tolyl)thiazol-2-yl)phenyl)piperidine-4-carboxamide]",
,,,,CNS(=O)(=O)Cc1ccc2[nH]cc(CCN(C)C)c2c1 [sumatriptan],inhibit formalin-induced orofacial pain
